The target in the assay is human RORgammaT-Ligand Binding Domain (LBD) (Homo sapiens (Human), UniProt P51449). The experiment in a line: RORγ-Ligand Binding Domain TR-FRET Assay (co-activator peptide SRC1_2 recruitment). The note with it: HIS-tagged RORγ-LBD 3 nM, biotinylated SRC1 LXXLL peptide 100 nM, incubated overnight at 4° C., 665 nm/615 nm ratio. In kind it is biochemical. The procedure, abridged:
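E. coli-expressed, Ni2+-purified HIS-tagged human RORγ-LBD at 3 nM final in 50 mM Tris pH 7.0, 50 mM KCl, 1 mM EDTA, 0.1 mM DTT, 100 μg/mL delipidated BSA. TR-FRET read-out of SRC1_2 co-activator peptide recruitment; compounds dispensed acoustically.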
In general terms: TR-FRET usually uses a lanthanide donor and a delayed reading to cut background.

Chain of human RORgammaT-Ligand Binding Domain (LBD) (P51449 269-508): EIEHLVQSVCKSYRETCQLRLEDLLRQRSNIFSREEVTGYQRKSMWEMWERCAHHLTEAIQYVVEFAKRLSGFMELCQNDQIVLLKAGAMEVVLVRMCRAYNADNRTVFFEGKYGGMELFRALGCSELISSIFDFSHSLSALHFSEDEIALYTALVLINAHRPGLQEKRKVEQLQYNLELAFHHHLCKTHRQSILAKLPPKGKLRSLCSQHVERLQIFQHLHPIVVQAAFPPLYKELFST

For the compound `CCc1nc(S(=O)(=O)N2C[C@H](CC(C)(C)C(=O)O)Oc3ccc(NC(=O)OC(C)(C)C(F)(F)F)cc32)c(OC(C)C)s1` [Example 12S, 3-[(2S)-4-{[2-ethyl-5-(1-methylethoxy)-1,3-thiazol-4-yl]sulfonyl}-6-{[(2,2,2-trifluoro-1,1-dimethylethoxy)carbonyl]ami-no}-3,4-dihydro-2H-1,4-benzoxazin-2-yl]-2,2-dimethylpropanoic acid], the IC50 was 16.4 nM.
As to `CC(C)(C[C@H]1CN(S(=O)(=O)c2c(Cl)nn3c2CCCC3)c2cc(NC(=O)OC(C)(C)C(F)(F)F)ccc2O1)C(=O)O` [Example 12Y, 3-[(2S)-4-[(2-chloro-4,5,6,7-tetrahydropyrazolo[1,5-a]pyridin-3-yl)sulfonyl]-6-{[(2,2,2-trifluoro-1,1-dimethylethoxy)carbonyl]ami-no}-3,4-dihydro-2H-1,4-benzoxazin-2-yl]-2,2-dimethylpropanoic acid], the IC50 was determined as 14.4 nM.
For `Cc1nn(C(F)F)cc1S(=O)(=O)N1C[C@H](CC(C)(C)C(=O)O)Oc2ccc(NC(=O)OC(C)(C)C(F)(F)F)cc21` [Example 12o, 3-[(2S)-4-{[1-(difluoromethyl)-3-methyl-1H-pyrazol-4-yl]sulfonyl}-6-{[(2,2,2-trifluoro-1,1-dimethylethoxy)carbonyl]ami-no}-3,4-dihydro-2H-1,4-benzoxazin-2-yl]-2,2-dimethylpropanoic acid], the IC50 amounted to 14.9 nM.
`CC(C)(OC(=O)Nc1ccc2c(c1)N(S(=O)(=O)c1cccc(C3CC3)c1)C[C@H](CC1(C(=O)O)CC1)O2)C(F)(F)F` [Example 14B, (S)-1-((4-((3-cyclopropylphenyl)sulfonyl)-6-((((1,1,1-trifluoro-2-methylpropan-2-yl)oxy)carbonyl)amino)-3,4-dihydro-2H-benzo[b][1,4]oxazin-2-yl)methyl)cyclopropanecarboxy-lic acid]: the IC50 amounted to 17.5 nM.
For the compound `CC(C)(OC(=O)Nc1ccc2c(c1)N(S(=O)(=O)c1cccc(C3CC3)c1)C[C@@H](CC1(C(=O)O)CC1)O2)C(F)(F)F` [Example 14D, (R)-1-((4-((3-cyclopropylphenyl)sulfonyl)-6-((((1,1,1-trifluoro-2-methylpropan-2-yl)oxy)carbonyl)amino)-3,4-dihydro-2H-benzo[b][1,4]oxazin-2-yl)mehtyl)cyclopropanecarboxy-lic acid], the IC50 was determined as 36.7 nM.
Under `CC(C)(OC(=O)Nc1ccc2c(c1)N(S(=O)(=O)c1ccc(F)c(C(F)(F)F)c1)C[C@H]([C@H]1C[C@H]1C(=O)O)O2)C(F)(F)F` [Example 22A, (1R,2S)-2-((S)-4-((4-fluoro-3-(trifluoromethyl)phenyl)sulfonyl)-6-((((1,1,1-trifluoro-2-methylpropan-2-yl)oxy)carbonyl)amino)-3,4-dihydro-2H-benzo[b][1,4]oxazin-2-yl)cyclopropanecarboxylic acid] stands 22.4 nM; under `CC(C)(OC(=O)Nc1ccc2c(c1)N(S(=O)(=O)c1ccc(F)c(C(F)(F)F)c1)C[C@H]([C@@H]1C[C@@H]1C(=O)O)O2)C(F)(F)F` [Example 22B, (1S,2R)-2-((S)-4-((4-fluoro-3-(trifluoromethyl)phenyl)sulfonyl)-6-((((1,1,1-trifluoro-2-methylpropan-2-yl)oxy)carbonyl)amino)-3,4-dihydro-2H-benzo[b][1,4]oxazin-2-yl)cyclopropanecarboxylic acid], 13.5 nM; under `CC(C)(OC(=O)Nc1ccc2c(c1)N(S(=O)(=O)c1ccc(F)c(C(F)(F)F)c1)C[C@H]([C@@H]1C[C@H]1C(=O)O)O2)C(F)(F)F` [Example 22C, (1R,2R)-2-((S)-4-((4-fluoro-3-(trifluoromethyl)phenyl)sulfonyl)-6-((((1,1,1-trifluoro-2-methylpropan-2-yl)oxy)carbonyl)amino)-3,4-dihydro-2H-benzo[b][1,4]oxazin-2-yl)cyclopropanecarboxylic acid], 8.71 nM.
Take `CC(C)(OC(=O)Nc1ccc2c(c1)N(S(=O)(=O)c1ccc(F)c(C(F)(F)F)c1)C[C@H]([C@H]1C[C@@H]1C(=O)O)O2)C(F)(F)F` [Example 22D, (1S,2S)-2-((S)-4-((4-fluoro-3-(trifluoromethyl)phenyl)sulfonyl)-6-((((1,1,1-trifluoro-2-methylpropan-2-yl)oxy)carbonyl)amino)-3,4-dihydro-2H-benzo[b][1,4]oxazin-2-yl)cyclopropanecarboxylic acid]: the IC50 was found to be 5.87 nM.
Regarding `COc1cc(S(=O)(=O)N2C[C@H](CCC(=O)O)Oc3ccc(NC(=O)OCC4(C(F)(F)F)CC4)cc32)ccc1F` [Example 24A, 3-{(2S)-4-[(4-fluoro-3-methoxyphenyl)sulfonyl]-6-[({[1-(trifluoromethyl)cyclopropyl]methoxy}carbonyl)amino]-3,4-dihydro-2H-1,4-benzoxazin-2-yl}propanoic acid], the IC50 worked out at 17.7 nM.
In the case of `COc1cc(S(=O)(=O)N2C[C@H](CCC(=O)O)Oc3ccc(NC(=O)OC4(C(F)(F)F)CCC4)cc32)ccc1F` [Example 24B, 3-{(2S)-4-[(4-fluoro-3-methoxyphenyl)sulfonyl]-6-[({[1-(trifluoromethyl)cyclobutyl]oxy}carbonyl)amino]-3,4-dihydro-2H-1,4-benzoxazin-2-yl}propanoic acid] it was 12 nM; in that of `C[C@@H]1[C@H](CCC(=O)O)Oc2ccc(NC(=O)OC(C)(C)C(F)(F)F)cc2N1S(=O)(=O)c1cccc(C(F)(F)F)c1` [Example 25, 3-((2S,3R)-3-methyl-6-((((1,1,1-trifluoro-2-methylpropan-2-yl)oxy)carbonyl)amino)-4-((3-(trifluoromethyl)phenyl)sulfonyl)-3,4-dihydro-2H-benzo[b][1,4]oxazin-2-yl)propanoic acid], 10.1 nM.
As for `COc1cc(S(=O)(=O)N2c3cc(NC(=O)OC(C)(C)C(F)(F)F)ccc3O[C@H](CC(C)(C)C(=O)O)[C@@H]2C)ccc1F` [Example 27A, 3-[(2R,3S)-4-[(4-fluoro-3-methoxyphenyl)sulfonyl]-3-methyl-6-{[(2,2,2-trifluoro-1,1-dimethylethoxy)carbonyl]ami-no}-3,4-dihydro-2H-1,4-benzoxazin-2-yl]-2,2-dimethylpropanoic acid], the IC50 was 8200 nM.
In the case of `COc1cc(S(=O)(=O)N2c3cc(NC(=O)OC(C)(C)C(F)(F)F)ccc3O[C@@H](CC(C)(C)C(=O)O)[C@H]2C)ccc1F` [Example 27B, 3-[(2S,3R)-4-[(4-fluoro-3-methoxyphenyl)sulfonyl]-3-methyl-6-{[(2,2,2-trifluoro-1,1-dimethylethoxy)carbonyl]ami-no}-3,4-dihydro-2H-1,4-benzoxazin-2-yl]-2,2-dimethylpropanoic acid], the half-maximal inhibitory concentration (IC50) came to 17.5 nM.
With `CC(C)(OC(=O)Nc1cc(F)c2c(c1)N(S(=O)(=O)c1ccc(F)c(C(F)(F)F)c1)C[C@H](CCC(=O)O)O2)C(F)(F)F` [Example 28, (S)-3-(8-fluoro-4-((4-fluoro-3-(trifluoromethyl)phenyl)sulfonyl)-6-((((1,1,1-trifluoro-2-methylpropan-2-yl)oxy)carbonyl)amino)-3,4-dihydro-2H-benzo[b][1,4]oxazin-2-yl)propanoic acid], the IC50 came to 10.2 nM.
In the case of `Cc1cc(S(=O)(=O)N2C[C@H](CCC(=O)O)Oc3c(F)cc(NC(=O)OC(C)(C)C(F)(F)F)cc32)ccc1F` [Example 29A, 3-[(2S)-8-fluoro-4-[(4-fluoro-3-methylphenyl)sulfonyl]-6-{[(2,2,2-trifluoro-1,1-dimethylethoxy)carbonyl]ami-no}-3,4-dihydro-2H-1,4-benzoxazin-2-yl]propanoic acid] it was 5.71 nM.

What is called IC50 is the concentration at which inhibition is half-maximal.

Values taken from patent US9783511B2, “Carbamate benzoxazine propionic acids and acid derivatives for modulation of RORgamma activity and the treatment of disease” (Merck Sharp & Dohme Corp., priority 2013, dated 2017).
